In patent publication US11498899B2, “Nitrone herbicides” (FMC Corporation, priority 2016, dated 2022):

Columns and labels:
[1] = tested on: barnyardgrass (Echinochloa crus-galli); assay: Test B flooded paddy test, visual rating 0-100; conditions: Flood, 250 g ai/ha, applied to paddy water, rated after 13 to 15 days
kochia (Kochia scoparia) [2] = assay: Test A preemergence, visual injury rating 0-100; type: in vivo; conditions: for Kochia plant response rating: 0 to 100 scale
[3] = tested on: pigweed (Amaranthus retroflexus); assay: Test A preemergence, visual injury rating 0-100; type: in vivo; conditions: for Pigweed plant response rating: 0 to 100 scale
[4] = tested on: foxtail, green (green foxtail, Setaria viridis); assay: Test A preemergence, visual injury rating 0-100; type: in vivo; conditions: for Foxtail, Green plant response rating (0 to 100 scale): 125 g ai/ha; for Foxtail, Green plant response rating: 500 g ai/ha, 0 to 100 scale
[5] = tested on: ryegrass, Italian (Italian ryegrass, Lolium multiflorum); assay: Test A preemergence, visual injury rating 0-100; type: in vivo; conditions: for Ryegrass, Italian plant response rating: 0 to 100 scale
[6] = tested on: ragweed (common ragweed, Ambrosia elatior); assay: Test A preemergence, visual injury rating 0-100; type: in vivo; conditions: for Ragweed plant response rating: 0 to 100 scale
rice (Oryza sativa) = assay: Test B flooded paddy test, visual rating 0-100 (0 no effect, 100 complete control); conditions: Flood, 250 g ai/ha, applied to paddy water, rated after 13 to 15 days
[7] = tested on: barnyardgrass (Echinochloa crus-galli); assay: Test A preemergence, visual injury rating 0-100 (0 no effect, 100 complete control); type: in vivo; conditions: for Barnyardgrass plant response rating: 0 to 100 scale
kochia (Kochia scoparia) [8] = assay: Test A postemergence, visual injury rating 0-100; type: in vivo; conditions: 0 to 100 scale
[9] = tested on: pigweed (Amaranthus retroflexus); assay: Test A postemergence, visual injury rating 0-100; type: in vivo; conditions: 0 to 100 scale
[10] = tested on: blackgrass (Alopecurus myosuroides); assay: Test A postemergence, visual injury rating 0-100; type: in vivo; conditions: 0 to 100 scale
corn (Zea mays) = assay: Test A postemergence, visual injury rating 0-100; type: in vivo; conditions: 0 to 100 scale
[11] = tested on: foxtail, green (green foxtail, Setaria viridis); assay: Test A postemergence, visual injury rating 0-100; type: in vivo; conditions: 0 to 100 scale
[12] = tested on: ryegrass, Italian (Italian ryegrass, Lolium multiflorum); assay: Test A postemergence, visual injury rating 0-100; type: in vivo; conditions: 0 to 100 scale
[13] = tested on: wheat (Triticum aestivum); assay: Test A postemergence, visual injury rating 0-100; type: in vivo; conditions: 0 to 100 scale
[14] = tested on: ragweed (common ragweed, Ambrosia elatior); assay: Test A postemergence, visual injury rating 0-100; type: in vivo; conditions: 0 to 100 scale
[15] = tested on: barnyardgrass (Echinochloa crus-galli); assay: Test A postemergence, visual injury rating 0-100; type: in vivo; conditions: 0 to 100 scale
[16] = tested on: ducksalad (Heteranthera limosa); assay: Test B flooded paddy test, visual rating 0-100; conditions: Flood, 250 g ai/ha, applied to paddy water, rated after 13 to 15 days
[17] = tested on: foxtail, giant (giant foxtail, Setaria faberii); assay: Test A preemergence, visual injury rating 0-100; type: in vivo
[18] = tested on: galium (catchweed bedstraw, Galium aparine); assay: Test A postemergence, visual injury rating 0-100; type: in vivo; conditions: 0 to 100 scale
[19] = tested on: foxtail, giant (giant foxtail, Setaria faberii); assay: Test A postemergence, visual injury rating 0-100; type: in vivo; conditions: 0 to 100 scale

| Compound | Barnyardgrass plant response rating (0 to 100 scale) [1] | Kochia plant response rating (0 to 100 scale) (kochia (Kochia scoparia) [2]; 125 g ai/ha) | Pigweed plant response rating (0 to 100 scale) ([3]; 125 g ai/ha) | Ryegrass, Italian plant response rating (0 to 100 scale) ([5]; 125 g ai/ha) | Ragweed plant response rating (0 to 100 scale) ([6]; 125 g ai/ha) | Rice plant response rating (0 to 100 scale) (rice (Oryza sativa)) | Barnyardgrass plant response rating (0 to 100 scale) ([7]; 125 g ai/ha) | Kochia plant response rating (kochia (Kochia scoparia) [8]; 125 g ai/ha) | Kochia plant response rating (kochia (Kochia scoparia) [8]; 500 g ai/ha) | Pigweed plant response rating ([9]; 125 g ai/ha) | Pigweed plant response rating ([9]; 500 g ai/ha) | Blackgrass plant response rating ([10]; 125 g ai/ha) | Blackgrass plant response rating ([10]; 500 g ai/ha) | Corn plant response rating (corn (Zea mays); 125 g ai/ha) | Corn plant response rating (corn (Zea mays); 500 g ai/ha) | Ryegrass, Italian plant response rating ([12]; 125 g ai/ha) | Ryegrass, Italian plant response rating ([12]; 500 g ai/ha) | Wheat plant response rating ([13]; 125 g ai/ha) | Wheat plant response rating ([13]; 500 g ai/ha) | Ragweed plant response rating ([14]; 125 g ai/ha) | further results |
| --- | --- | --- | --- | --- | --- | --- | --- | --- | --- | --- | --- | --- | --- | --- | --- | --- | --- | --- | --- | --- | --- |
| CC1=[N+]([O-])C(C(=O)Nc2cccc(F)c2F)C(c2ccc(C#N)cc2)C1 (racemic) [Compound 22] | 0 | 0 | 0 | 0 | 70 | 30 | 20 | 0 | 30 | 0 | 20 | 0 | 30 | 0 | 0 | 0 | 0 | 0 | 0 | 0 | Kochia plant response rating (kochia (Kochia scoparia) [2]; 500 g ai/ha): 20; Pigweed plant response rating ([3]; 500 g ai/ha): 20; Foxtail, Green plant response rating (0 to 100 scale) [4]: 40; Foxtail, Green plant response rating [4]: 70; Ryegrass, Italian plant response rating ([5]; 500 g ai/ha): 0; Ragweed plant response rating ([6]; 500 g ai/ha): 30; Barnyardgrass plant response rating ([7]; 500 g ai/ha): 80; Foxtail, Green plant response rating ([11]; 125 g ai/ha): 0; Foxtail, Green plant response rating ([11]; 500 g ai/ha): 50; Ragweed plant response rating ([14]; 500 g ai/ha): 0; Barnyardgrass plant response rating ([15]; 125 g ai/ha): 0; Barnyardgrass plant response rating ([15]; 500 g ai/ha): 60; Ducksalad plant response rating (0 to 100 scale) [16]: 40 |
| CC1=[N+]([O-])C(C(=O)Nc2cccc(F)c2F)C(c2cccc(C#N)c2)C1 (racemic) [Compound 23] | 50 | 20 | 0 | 0 | 50 | 0 | 60 | 0 | 20 | 0 | 0 | 0 | 0 | 0 | 0 | 0 | 20 | 20 | 50 | 0 | Kochia plant response rating (kochia (Kochia scoparia) [2]; 500 g ai/ha): 50; Pigweed plant response rating ([3]; 500 g ai/ha): 0; Foxtail, Green plant response rating (0 to 100 scale) [4]: 80; Foxtail, Green plant response rating [4]: 90; Ryegrass, Italian plant response rating ([5]; 500 g ai/ha): 0; Ragweed plant response rating ([6]; 500 g ai/ha): 80; Barnyardgrass plant response rating ([7]; 500 g ai/ha): 90; Foxtail, Green plant response rating ([11]; 125 g ai/ha): 30; Foxtail, Green plant response rating ([11]; 500 g ai/ha): 80; Ragweed plant response rating ([14]; 500 g ai/ha): 0; Barnyardgrass plant response rating ([15]; 125 g ai/ha): 70; Barnyardgrass plant response rating ([15]; 500 g ai/ha): 80; Ducksalad plant response rating (0 to 100 scale) [16]: 60 |
| CC1=[N+]([O-])C(C(=O)Nc2cccc(F)c2F)C(c2ccc(C(F)(F)F)cc2F)C1 (centres unmarked) [Compound 101] | 50 | 30 | 70 | 40 | 10 | 0 | 90 | 30 | 60 | 0 | 60 | 70 | 80 | 20 | 70 | 50 | 50 | 10 | 60 | 30 | Kochia plant response rating (0 to 100 scale) (kochia (Kochia scoparia) [2]; 500 g ai/ha): 90; Pigweed plant response rating (0 to 100 scale) ([3]; 500 g ai/ha): 90; Ryegrass, Italian plant response rating (0 to 100 scale) ([5]; 500 g ai/ha): 90; Ragweed plant response rating (0 to 100 scale) ([6]; 500 g ai/ha): 90; Foxtail, Giant plant response rating (0 to 100 scale) ([17]; 125 g ai/ha): 90; Foxtail, Giant plant response rating (0 to 100 scale) ([17]; 500 g ai/ha): 90; Barnyardgrass plant response rating (0 to 100 scale) ([7]; 500 g ai/ha): 90; Galium plant response rating ([18]; 125 g ai/ha): 70; Galium plant response rating ([18]; 500 g ai/ha): 80; Ragweed plant response rating ([14]; 500 g ai/ha): 60; Foxtail, Giant plant response rating ([19]; 125 g ai/ha): 80; Foxtail, Giant plant response rating ([19]; 500 g ai/ha): 90; Barnyardgrass plant response rating ([15]; 125 g ai/ha): 50; Barnyardgrass plant response rating ([15]; 500 g ai/ha): 90; Ducksalad plant response rating (0 to 100 scale) [16]: 90 |
